Laboratory results published in ChEMBL document CHEMBL1201862, “PubChem BioAssay data set” (2004).
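Where inhibition never reached the appropriate level, the endpoint shown equals the highest concentration tested. Otherwise, values were interpolated linearly from a five-concentration, 48-hour dose response in 96-well plates. Abbreviation: GI50, concentration required for 50% inhibition of growth.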 Activity calls are given as the source filed them. Rule as the data show it: active = GI50 up to about 1.1 µM and inactive = higher.

How the values were obtained:
Experiment in all cases: NCI-60 cell line screen, 48 h
CCRF-CEM = tested on: CCRF-CEM
OVCAR-4 = tested on: OVCAR-4
K562 = tested on: K562
RPMI-8226 = tested on: RPMI-8226
MDA-MB-231 = tested on: MDA-MB-231
SF-539 = tested on: SF-539
RXF 393 = tested on: RXF 393
HOP-62 = tested on: HOP-62
DU-145 = tested on: DU-145
PC-3 = tested on: PC-3
UACC-257 = tested on: UACC-257
SF-268 = tested on: SF-268
Hs-578T = tested on: Hs-578T
786-0 = tested on: 786-0
HT-29 = tested on: HT-29
A549 = tested on: A549
OVCAR-3 = tested on: OVCAR-3
SK-MEL-28 = tested on: SK-MEL-28
MDA-MB-435 = tested on: MDA-MB-435
UO-31 = tested on: UO-31

Compound	GI50 (CCRF-CEM)	GI50 (OVCAR-4)	GI50 (K562)	GI50 (RPMI-8226)	GI50 (MDA-MB-231)	GI50 (SF-539)	GI50 (RXF 393)	GI50 (HOP-62)	GI50 (DU-145)	GI50 (PC-3)	GI50 (UACC-257)	GI50 (SF-268)	GI50 (Hs-578T)	GI50 (786-0)	GI50 (HT-29)	GI50 (A549)	GI50 (OVCAR-3)	GI50 (SK-MEL-28)	GI50 (MDA-MB-435)	GI50 (UO-31)
CC(c1ccccc1)n1cncc1C(=O)NN1CCN(C)CC1 (stereo not drawn)	> 10 µM (inactive)	> 10 µM (inactive)	> 10 µM (inactive)	> 10 µM (inactive)	> 10 µM (inactive)	> 10 µM (inactive)	> 10 µM (inactive)	> 10 µM (inactive)	> 10 µM (inactive)	> 10 µM (inactive)	> 10 µM (inactive)	> 10 µM (inactive)	> 10 µM (inactive)	> 10 µM (inactive)	> 10 µM (inactive)	> 10 µM (inactive)	> 10 µM (inactive)	> 10 µM (inactive)	> 10 µM (inactive)	–
Cn1c2ccccc2c(=O)c2cccc(C(=O)NC(CCC(N)=O)C(=O)O)c21 (stereo not drawn)	–	> 100 µM (inactive)	> 100 µM (inactive)	> 100 µM (inactive)	> 100 µM (inactive)	> 100 µM (inactive)	–	> 100 µM (inactive)	> 100 µM (inactive)	> 100 µM (inactive)	> 100 µM (inactive)	> 100 µM (inactive)	> 100 µM (inactive)	> 100 µM (inactive)	> 100 µM (inactive)	> 100 µM (inactive)	> 100 µM (inactive)	> 100 µM (inactive)	> 100 µM (inactive)	> 10 µM (inactive)
Cc1ccc2c(c1)-c1c(C#N)c(N)nc(-c3ccccc3)c1CCS2(=O)=O	1.23 µM (inactive)	52 µM (inactive)	1.97 µM (inactive)	4.56 µM (inactive)	17.5 µM (inactive)	6.35 µM (inactive)	–	6.95 µM (inactive)	6.19 µM (inactive)	13.4 µM (inactive)	6.31 µM (inactive)	22.9 µM (inactive)	5.98 µM (inactive)	6.38 µM (inactive)	3.78 µM (inactive)	11 µM (inactive)	5.47 µM (inactive)	11.8 µM (inactive)	1.72 µM (inactive)	13.4 µM (inactive)
CC1(C)O[C@@H]([C@@H](O)[C@H](O)C2SCCCS2)[C@@H](CO)O1	> 100 µM (inactive)	–	> 100 µM (inactive)	> 100 µM (inactive)	> 100 µM (inactive)	–	> 100 µM (inactive)	> 100 µM (inactive)	> 100 µM (inactive)	> 100 µM (inactive)	> 100 µM (inactive)	> 100 µM (inactive)	> 100 µM (inactive)	> 100 µM (inactive)	> 100 µM (inactive)	> 100 µM (inactive)	> 100 µM (inactive)	> 100 µM (inactive)	> 100 µM (inactive)	> 100 µM (inactive)
CCCCCCCCCCC(O)C1CCC(C2CCC(C(O)CCCCC(O)CCCCCC(O)CC3=CC(C)OC3=O)O2)O1 (stereo not drawn)	–	> 25 µM (inactive)	> 6.9 µM (inactive)	> 16.4 µM (inactive)	> 25 µM (inactive)	> 25 µM (inactive)	> 17.2 µM (inactive)	> 25 µM (inactive)	9.91 µM (inactive)	> 25 µM (inactive)	2.12 µM (inactive)	4 µM (inactive)	4.75 µM (inactive)	> 25 µM (inactive)	3.21 µM (inactive)	> 20.9 µM (inactive)	> 25 µM (inactive)	> 25 µM (inactive)	> 25 µM (inactive)	> 25 µM (inactive)
O=C1OC(C2(O)OC(=O)c3ccccc32)c2ccccc21 (stereo not drawn)	–	> 100 µM (inactive)	–	> 100 µM (inactive)	> 100 µM (inactive)	> 100 µM (inactive)	> 100 µM (inactive)	> 100 µM (inactive)	> 100 µM (inactive)	> 100 µM (inactive)	> 100 µM (inactive)	> 100 µM (inactive)	> 100 µM (inactive)	> 100 µM (inactive)	> 100 µM (inactive)	> 100 µM (inactive)	> 100 µM (inactive)	> 100 µM (inactive)	> 100 µM (inactive)	> 100 µM (inactive)
N#Cc1c(N)c2c(c(-c3ccccc3)c1-c1ccccc1)C(=O)N(Nc1ccccc1)C2=O	31.6 µM (inactive)	35.1 µM (inactive)	33.6 µM (inactive)	29.5 µM (inactive)	> 100 µM (inactive)	35.8 µM (inactive)	19.3 µM (inactive)	–	31.3 µM (inactive)	28.3 µM (inactive)	48.6 µM (inactive)	59.2 µM (inactive)	95.3 µM (inactive)	40.6 µM (inactive)	–	26.9 µM (inactive)	21.7 µM (inactive)	46.6 µM (inactive)	68.5 µM (inactive)	24.7 µM (inactive)
Cc1cc2c(cc1Cl)SC(NNCCO)=NS2(=O)=O	> 100 µM (inactive)	> 100 µM (inactive)	56.2 µM (inactive)	> 100 µM (inactive)	> 100 µM (inactive)	> 100 µM (inactive)	> 100 µM (inactive)	> 100 µM (inactive)	> 100 µM (inactive)	86.3 µM (inactive)	> 100 µM (inactive)	> 100 µM (inactive)	> 100 µM (inactive)	> 100 µM (inactive)	> 100 µM (inactive)	–	–	> 100 µM (inactive)	> 100 µM (inactive)	> 100 µM (inactive)
COCc1cc2c(cc1/C=C/[N+](=O)[O-])OCO2	1.62 µM (inactive)	–	> 100 µM (inactive)	76 µM (inactive)	20.4 µM (inactive)	20.7 µM (inactive)	18 µM (inactive)	20.7 µM (inactive)	19.4 µM (inactive)	12.1 µM (inactive)	16.8 µM (inactive)	20.7 µM (inactive)	19.5 µM (inactive)	16.9 µM (inactive)	18.5 µM (inactive)	17.1 µM (inactive)	19.4 µM (inactive)	11 µM (inactive)	18.3 µM (inactive)	17 µM (inactive)
CC1=NN2C=Nc3c(c(-c4ccc(Cl)cc4)cn3-c3ccc(C)cc3)C2N1 (stereo not drawn)	> 100 µM (inactive)	6.24 µM (inactive)	> 100 µM (inactive)	–	71.1 µM (inactive)	87.1 µM (inactive)	42.5 µM (inactive)	36.5 µM (inactive)	> 100 µM (inactive)	32.9 µM (inactive)	> 100 µM (inactive)	71.1 µM (inactive)	11.3 µM (inactive)	19.5 µM (inactive)	64.4 µM (inactive)	> 100 µM (inactive)	> 100 µM (inactive)	> 100 µM (inactive)	> 100 µM (inactive)	> 100 µM (inactive)
COc1cccc2c1CCc1sc(CN3CCN(C)CC3)nc1-2	24.9 µM (inactive)	> 100 µM (inactive)	31.4 µM (inactive)	30.1 µM (inactive)	85.7 µM (inactive)	–	6.84 µM (inactive)	> 100 µM (inactive)	> 100 µM (inactive)	44.8 µM (inactive)	> 100 µM (inactive)	> 100 µM (inactive)	> 100 µM (inactive)	78.5 µM (inactive)	20.4 µM (inactive)	> 100 µM (inactive)	> 100 µM (inactive)	49.7 µM (inactive)	63.5 µM (inactive)	> 100 µM (inactive)
COc1cccc(Nc2nc(-c3cccs3)nc3cc(OC)c(OC)cc23)c1	–	41.3 µM (inactive)	37.1 µM (inactive)	13.2 µM (inactive)	23 µM (inactive)	20.9 µM (inactive)	–	27.8 µM (inactive)	55.6 µM (inactive)	27.9 µM (inactive)	36.8 µM (inactive)	40.9 µM (inactive)	27.4 µM (inactive)	21.9 µM (inactive)	24.8 µM (inactive)	29 µM (inactive)	24.3 µM (inactive)	31.5 µM (inactive)	31.3 µM (inactive)	51.8 µM (inactive)
Cc1ccc2nc3ccccc3c(C3C4C(=O)N(c5ccc(Br)cc5Cl)C(=O)C4ON3C(C(N)=O)c3ccccc3)c2c1 (stereo not drawn)	8.13 µM (inactive)	19.7 µM (inactive)	> 25 µM (inactive)	–	> 25 µM (inactive)	11.8 µM (inactive)	13.3 µM (inactive)	> 25 µM (inactive)	> 25 µM (inactive)	> 25 µM (inactive)	15.6 µM (inactive)	> 25 µM (inactive)	> 25 µM (inactive)	20.8 µM (inactive)	11.2 µM (inactive)	> 25 µM (inactive)	> 25 µM (inactive)	> 25 µM (inactive)	11.1 µM (inactive)	7.41 µM (inactive)
Nc1ccc(Oc2ccc(C34CC5CC6C3CC3CC4C(C5)C6(c4ccc(Oc5ccc(N)cc5)cc4)C3)cc2)cc1	15.4 µM (inactive)	11.1 µM (inactive)	10.2 µM (inactive)	13 µM (inactive)	9.08 µM (inactive)	–	18.6 µM (inactive)	18.3 µM (inactive)	8.93 µM (inactive)	8.26 µM (inactive)	0.329 µM (active)	22.6 µM (inactive)	25.4 µM (inactive)	13.4 µM (inactive)	10.2 µM (inactive)	12.6 µM (inactive)	6.5 µM (inactive)	0.714 µM (active)	0.376 µM (active)	8.36 µM (inactive)
CCOC(=O)[C@@H]1CCN2CN(c3ccc(OC)cc3)N=C(c3ccccc3)[C@@]12c1ccccc1	23.7 µM (inactive)	44 µM (inactive)	66.8 µM (inactive)	14.1 µM (inactive)	31.6 µM (inactive)	–	14.7 µM (inactive)	27.7 µM (inactive)	22.6 µM (inactive)	25.5 µM (inactive)	19.4 µM (inactive)	28.9 µM (inactive)	23.4 µM (inactive)	18.6 µM (inactive)	17.1 µM (inactive)	29.9 µM (inactive)	–	21.5 µM (inactive)	26.5 µM (inactive)	17.8 µM (inactive)
